Read-outs that look alike come from different tables or passages of the source.
Tests used:
Type in all cases: cell-based, human
[1] = tested on: HCC38 breast cancer cells; test: MTS cell viability assay, HCC38; details: read-out: EC50 (effective concentration that resulted in 50% cell viability)
Description: (§1) Human breast (HCC38, MCF-7, MDA-MB-231, SK-BR-3, T-47D, and ZR-75-1), lung (A549 and H520), and prostate (DU145 and PC-3) cancer cell lines were obtained from American Culture Type Collection (ATCC). The HCC38, MCF-7, MDA-MB-231, SK-BR-3, T-47D, ZR-75-1, and A549 cells were grown in MEM supplemented with 10% FBS, 25 mM HEPES buffer (pH 7.4), penicillin (100 U/mL), and streptomycin (100 μg/mL). The H520, DU145, and PC-3 cell lines were grown in RPMI-1640 supplemented with 10% FBS, 25 mM HEPES buffer (pH 7.4), penicillin (100 U/mL), and streptomycin (100 μg/mL). All cell lines were maintained at 37° C. in a humidified, 5% CO2 atmosphere.
(§2) Cells were cultured at a density of 2-3.5×10^3 cells per well in flat bottomed 96-well plates in 100 μL of complete growth medium and incubated for 2 days to reach ˜50% confluence. The cells were then treated with solvent or the appropriate drugs (CDDP stock was dissolved in 0.15 M NaCl, carboplatin stock was dissolved in 5% glucose, synthesized Pt(IV) complexes were dissolved in DMSO) for 1 hour, washed three times with 100 μL PBS, and incubated in 100 μL of fresh medium. After 2 days, the medium was replaced with 120 μL of medium containing CellTiter 96® Aqueous One Solution Reagent (MTS reagent) (Promega, Madison, Wis.). The cells were incubated at 37° C. for 4 hours and the cell viability was determined by measuring the absorbance at 490 nm using a Tecan Infinite M1000 microplate reader. The 48 h treatment was done in a similar manner, except the cells were not washed after treatment and the MTS reagent was immediately added. Viability of treated groups was calculated as a percent of control and graphed with GraphPad Prism.
(§3) The anti-proliferative activities of Pt(IV) complexes were determined in two lung (A549 and H520), two prostate (DU145 and PC-3), and six breast (HCC38, MCF-7, MDA-MB-231, SK-BR-3, T-47D, and ZR-75-1) cancer cell lines. The cells were treated with increasing concentrations of cisplatin (CDDP), carboplatin, or the Pt(IV) complexes for 1 or 48 hours, and the viability was measured using an MTS colorimetric cell proliferation assay. Graphs of the results are shown for DU145 (FIG. 8A), PC-3 (FIG. 8B), SK-BR-3 (FIG. 8C), ZR-75-1 (FIG. 8D), A549 (FIG. 8E), and MCF-7 (FIG. 8F).

H520 lung cancer cells = test: MTS cell viability assay, H520; details: read-out: EC50 (effective concentration that resulted in 50% cell viability)
Description: as §1, §2, §3

[2] = tested on: DU145 prostate cancer cells; details: for EC50: read-out: EC50 (effective concentration that resulted in 50% cell viability); for anti-proliferative activity compared to cisplatin (in words): DU145, one and 48 hours treatment (FIG. 8H)
Description: as §1, §2, §3
(§4) The anti-proliferative activities of certain Pt(II) complexes were determined in DU145, PC-3, and SK-BR-3 cells. The cells were treated with increasing concentrations of cisplatin (CDDP) or the Pt(II) complexes for 1 or 48 hours, and the viability was measured using an MTS colorimetric cell proliferation assay.

[3] = tested on: T-47D breast cancer cells; test: MTS cell viability assay, T-47D
Description: as §1, §2, §3

[4] = tested on: SK-BR-3 breast cancer cells; test: MTS cell viability assay, SK-BR-3; details: for EC50: read-out: EC50 (effective concentration that resulted in 50% cell viability); for anti-proliferative activity compared to cisplatin (in words): SK-BR-3, one and 48 hours treatment (FIG. 8G)
Description: as §1, §2, §3, §4

[5] = tested on: ZR-75-1 breast cancer cells; test: MTS cell viability assay, ZR-75-1; details: read-out: EC50 (effective concentration that resulted in 50% cell viability)
Description: as §1, §2, §3

[6] = tested on: MCF-7 breast cancer cells; test: MTS cell viability assay, MCF-7; details: read-out: EC50 (effective concentration that resulted in 50% cell viability)
Description: as §1, §2, §3

[7] = tested on: MDA-MB-231 breast cancer cells; test: MTS cell viability assay, MDA-MB-231; details: read-out: EC50 (effective concentration that resulted in 50% cell viability)
Description: as §1, §2, §3

[8] = tested on: PC-3 prostate cancer cells; test: MTS cell viability assay, PC-3; details: for EC50: read-out: EC50 (effective concentration that resulted in 50% cell viability); for anti-proliferative activity compared to cisplatin (in words): PC-3, one and 48 hours treatment (FIG. 8I)
Description: as §1, §2, §3, §4

A549 lung cancer cells = test: MTS cell viability assay, A549; details: read-out: EC50 (effective concentration that resulted in 50% cell viability)
Description: as §1, §2, §3

[9] = 1 h treatment, Table 2, read-out: EC50 (effective concentration that resulted in 50% cell viability)
[10] = 48 h treatment, Table 4, read-out: EC50 (effective concentration that resulted in 50% cell viability)
[11] = SK-BR-3, 1 h treatment, Table 2
[12] = SK-BR-3, 48 h treatment, Table 4
[13] = ZR-75-1, 1 h treatment, Table 2
[14] = ZR-75-1, 48 h treatment, Table 4
[15] = MDA-MB-231, 1 h treatment, Table 2
[16] = MDA-MB-231, 48 h treatment, Table 4

Structure (SMILES)	EC50 ([1]; HCC38, 1 h treatment, Table 2) [µM]	EC50 ([1]; HCC38, 48 h treatment, Table 4) [µM]	EC50 (H520 lung cancer cells; H520, 1 h treatment, Table 2) [µM]	EC50 (H520 lung cancer cells; H520, 48 h treatment, Table 4) [µM]	EC50 ([2]; DU145, 1 h treatment, Table 2) [µM]	EC50 ([2]; DU145, 48 h treatment, Table 4) [µM]	EC50 [3, 9] [µM]	EC50 [3, 10] [µM]	EC50 [4, 11] [µM]	EC50 [4, 12] [µM]	EC50 [5, 13] [µM]	EC50 [5, 14] [µM]	EC50 ([6]; MCF-7, 1 h treatment, Table 2) [µM]	EC50 ([6]; MCF-7, 48 h treatment, Table 4) [µM]	EC50 [7, 15] [µM]	EC50 (A549 lung cancer cells; A549, 1 h treatment, Table 2) [µM]	EC50 (A549 lung cancer cells; A549, 48 h treatment, Table 4) [µM]	anti-proliferative activity compared to cisplatin (in words) [2]	anti-proliferative activity compared to cisplatin (in words) [4]	anti-proliferative activity compared to cisplatin (in words) [8]	further results
CCCOc1ccnc(-c2cc(OCCC)ccn2)c1.[Cl][Pt][Cl] [Pt(II)-3C]	3 ± 2	4.7 ± 0.5	40 ± 20	13 ± 5	6 ± 1	4 ± 2	2.4 ± 0.1	1.9 ± 0.1	1.81 ± 0.03	1.73 ± 0.01	8.9 ± 0.4	5 ± 1	100	19 ± 4	4 ± 2	48 ± 3	17 ± 1				EC50 [7, 16]: 2.2 ± 0.1 µM; EC50 ([8]; PC-3, 1 h treatment, Table 2): 5 ± 1 µM; EC50 ([8]; PC-3, 48 h treatment, Table 4): 5.1 ± 0.8 µM
CCOc1ccnc(-c2cc(OCC)ccn2)c1.[Cl][Pt][Cl] [Pt(II)-2C]	18 ± 4	20 ± 3	> 100	21 ± 1	20 ± 5	11 ± 4	5 ± 2	2.2 ± 0.4	2.2 ± 0.2	1.8	58 ± 15	16.5	> 100	> 100	30 ± 20	> 100	66 ± 7				EC50 [7, 16]: 20 ± 6 µM; EC50 ([8]; PC-3, 1 h treatment, Table 2): 22 ± 5 µM; EC50 ([8]; PC-3, 48 h treatment, Table 4): 21 ± 7 µM
CCCCCCOc1ccnc(-c2cc(OCCCCCC)ccn2)c1.[Cl][Pt][Cl] [Pt(II)-6C]	16 ± 5	14 ± 4	> 50	18 ± 1	2.1 ± 0.1	1.9 ± 0.1	3.2 ± 0.8	2.1 ± 0.2	1.84 ± 0.03	1.8	7 ± 2	6.4 ± 0.4	80 ± 30	12 ± 4	6 ± 3	66 ± 16	19.1 ± 0.8				EC50 [7, 16]: 4 ± 1 µM; EC50 ([8]; PC-3, 1 h treatment, Table 2): 2.24 ± 0.03 µM; EC50 ([8]; PC-3, 48 h treatment, Table 4): 2.7 ± 0.1 µM
CCOCCOCCOC(=O)c1ccnc(-c2cc(C(=O)OCCOCCOCC)ccn2)c1.[Cl][Pt][Cl] [Pt(II)-COO(C2O)2C2]																		not as effective as cisplatin	not as effective as cisplatin	not as effective as cisplatin	reduction in cell viability, one hour versus 48 hours treatment ([4]; SK-BR-3 (FIG. 8G)): greater reduction in cell viability than when they were treated for 48 hours
COC(=O)c1ccnc(-c2cc(C(=O)OC)ccn2)c1.[Cl][Pt][Cl] [Pt(II)-COOC1]																		generally more effective than cisplatin	generally more effective than cisplatin	generally more effective than cisplatin	
CCCCCCCCOC(=O)c1ccnc(-c2cc(C(=O)OCCCCCCCC)ccn2)c1.[Cl][Pt][Cl] [Pt(II)-COOC8]																		generally more effective than cisplatin	generally more effective than cisplatin	generally more effective than cisplatin	
N.N.O=C([O-])C1(C(=O)[O-])CCC1.[Pt+2] [Carboplatin, carboplatin, reference compound]					> 1000	400 ± 100							> 1000	800 ± 100		> 1000	300 ± 30				effect on cell viability (in words) ([2]; DU145, 1 hour treatment (FIG. 8A, top), up to 1 mM carboplatin, 100 μM Pt(IV)-1C, 50 μM Pt(IV)-2C): no effect; EC50 ([2]; DU145, 1 h treatment, Table 3): > 1000 µM; EC50 ([2]; DU145, 48 h, Table 5): 400 ± 100 µM; EC50 ([6]; MCF-7, 1 h treatment, Table 3): > 1000 µM; EC50 ([6]; MCF-7, 48 h, Table 5): 800 ± 100 µM; EC50 (A549 lung cancer cells; A549, 1 h treatment, Table 3): > 1000 µM; EC50 (A549 lung cancer cells; A549, 48 h, Table 5): 300 ± 30 µM
CCOC(=O)c1ccnc(-c2cc(C(=O)OCC)ccn2)c1.[Cl][Pt][Cl] [Pt(II)-COOC2]																		generally more effective than cisplatin	generally more effective than cisplatin	generally more effective than cisplatin	

— patent publication US10316050B2, “PT (IV) complexes containing 4,4′-disubstituted-2,2′-bipyridyl and their use in cancer therapy” (THE BOARD OF REGENTS OF THE NEVADA SYSTEM OF HIGHER …, priority 2014, dated 2019)
